Measured values from patent EP0183129A1, “Quinolonecarboxylic acid derivatives” (KYORIN PHARMACEUTICAL CO., LTD., priority 1984, dated 1986).
Values after ≈ are worked out from the molar mass of the structure shown. Read-outs that look alike come from different tables or passages of the source.

Tests used:
S. aureus Smith = test: In vitro antibacterial activity, MIC (standard strain); type: cell-based, Staphylococcus aureus; conditions: Staphylococcus aureus, S. aureus Smith, 10^6 cells/ml, standard strain
S. faecalis IID 682 = test: as above; type: cell-based; conditions: Enterococcus faecalis, IID682; S. faecalis IID 682; 10^6 cells/ml; standard strain; read-out: MIC
[1] = test system: Escherichia coli NIHJ JC-2; test: as above; type: cell-based; conditions: Escherichia coli, NIHJJC2, Escherichia coli NIHJ JC-2; 10^6 cells/ml; standard strain; read-out: MIC
[2] = test system: Morganella morganii IID 602; test: as above; type: cell-based; conditions: IID602; Morganella morganii IID 602; 10^6 cells/ml; standard strain; read-out: MIC
[3] = test system: Enterobacter cloacae IID 977; test: as above; type: cell-based; conditions: Enterobacter cloacae, IID977, Enterobacter cloacae IID 977; 10^6 cells/ml; standard strain; read-out: MIC
[4] = test system: Citrobacter freundii IID 976; test: as above; type: cell-based; conditions: IID976; Citrobacter freundii IID 976; 10^6 cells/ml; standard strain; read-out: MIC
K. pneumoniae 1-220S = test: as above; type: cell-based; conditions: Klebsiella pneumoniae, 1220S; K. pneumoniae 1-220S; 10^6 cells/ml; standard strain; read-out: MIC
[5] = test system: Salmonella entritidis IID 604; test: as above; type: cell-based; conditions: IID604; Salmonella entritidis IID 604; 10^6 cells/ml; standard strain; read-out: MIC
[6] = test system: Serratia marcescens IID 618; test: as above; type: cell-based; conditions: Serratia marcescens, IID618, Serratia marcescens IID 618; 10^6 cells/ml; standard strain; read-out: MIC
[7] = test system: Acinetobacter anitratus IID 876; test: as above; type: cell-based; conditions: Acinetobacter calcoaceticus, IID876, Acinetobacter anitratus IID 876; 10^6 cells/ml; standard strain; read-out: MIC
[8] = test system: Bacteroides fragilis GM 7000; test: as above; type: cell-based; conditions: GM7000; Bacteroides fragilis GM 7000; 10^6 cells/ml; standard strain; read-out: MIC
B. fragilis 0558 = test: as above; type: cell-based, Bacteroides fragilis; conditions: Bacteroides fragilis, 0558, B. fragilis 0558; 10^6 cells/ml; standard strain; read-out: MIC
S. pneumoniae 2054 = test: In vitro antibacterial activity, MIC (clinical isolates); type: cell-based; conditions: Streptococcus pneumoniae; S. pneumoniae 2054; 10^6 cells/ml; clinical isolate; read-out: MIC
S. pneumoniae 3227 = test: as above; type: cell-based; conditions: Streptococcus pneumoniae; S. pneumoniae 3227; 10^6 cells/ml; clinical isolate; read-out: MIC
S. pyogenes 3130 = test: as above; type: cell-based; conditions: Streptococcus pyogenes, read-out: MIC
S. pyogenes 3107 = test: as above; type: cell-based; conditions: Streptococcus pyogenes; S. pyogenes 3107; 10^6 cells/ml; clinical isolate; read-out: MIC
S. pyogenes 4340 = test: as above; type: cell-based; conditions: Streptococcus pyogenes; S. pyogenes 4340; 10^6 cells/ml; clinical isolate; read-out: MIC
S. agalactiae 4394 = test: as above; type: cell-based; conditions: Streptococcus agalactiae; S. agalactiae 4394; 10^6 cells/ml; clinical isolate; read-out: MIC
S. agalactiae 4342 = test: as above; type: cell-based; conditions: Streptococcus agalactiae; S. agalactiae 4342; 10^6 cells/ml; clinical isolate; read-out: MIC
S. agalactiae 4470 = test: as above; type: cell-based; conditions: Streptococcus agalactiae; S. agalactiae 4470; 10^6 cells/ml; clinical isolate; read-out: MIC
S. faecalis 49 = test: as above; type: cell-based; conditions: Enterococcus faecalis; S. faecalis 49; 10^6 cells/ml; clinical isolate; read-out: MIC
S. faecalis 214 = test: as above; type: cell-based; conditions: Enterococcus faecalis; S. faecalis 214; 10^6 cells/ml; clinical isolate; read-out: MIC
S. faecalis 401 = test: as above; type: cell-based; conditions: Enterococcus faecalis; S. faecalis 401; 10^6 cells/ml; clinical isolate; read-out: MIC
S. faecalis 402 = test: as above; type: cell-based; conditions: Enterococcus faecalis; S. faecalis 402; 10^6 cells/ml; clinical isolate; read-out: MIC
E. coli ML4707 = test: In vivo antibacterial activity against systemic infection in mice; set-up: species or system mice (ICR-S); conditions: for ED50: Escherichia coli, ML4707, mice (ICR-S), oral, an hour after intraperitoneal infection, challenge dose 2.7 x 10^6 ~ 8.8 x 10^6 cfu/mouse, read-out: ED50 E. coli ML4707; for activity against gram-negative bacterial infections compared with the reference compounds: systemic infection in mice, result in words
Experimental: Experiment-2 In vivo antibacterial activity against systemic infection in mice (ICR-S)
The infections were produced by intraperitoneal injection of a suspension of the bacterial culture corresponding to the germ studied. The products were administered orally at an hour after the infection.

Compound	MIC (S. faecalis IID 682)	MIC [1]	MIC [2]	MIC [3]	MIC [4]	MIC (K. pneumoniae 1-220S)	MIC [5]	MIC [6]	MIC [7]	MIC [8]	MIC (B. fragilis 0558)	MIC (S. pneumoniae 2054)	MIC (S. pneumoniae 3227)	MIC (S. pyogenes 3130)	MIC (S. pyogenes 3107)	MIC (S. pyogenes 4340)	MIC (S. agalactiae 4394)	MIC (S. agalactiae 4342)	MIC (S. agalactiae 4470)	MIC (S. faecalis 49)	further results
NCC1CCN(c2c(F)cc3c(=O)c(C(=O)O)cn(C4CC4)c3c2Br)C1 (stereo not drawn) [Example 15, 7-(3-Aminomethyl-l-pyrrolidinyl)-8-bromo-l-cyclopropyl-6-fluoro-1,4-dihydro-4-oxo-3-quinolinecarboxylic acid]	0.1 µg/mL (≈ 0.236 µM)	≤ 0.0063 µg/mL	0.1 µg/mL (≈ 0.236 µM)	0.05 µg/mL (≈ 0.118 µM)	0.025 µg/mL (≈ 0.0589 µM)	0.05 µg/mL (≈ 0.118 µM)	0.025 µg/mL (≈ 0.0589 µM)	0.1 µg/mL (≈ 0.236 µM)	0.05 µg/mL (≈ 0.118 µM)	0.1 µg/mL (≈ 0.236 µM)	≤ 0.05 µg/mL	0.1 µg/mL (≈ 0.236 µM)	0.05 µg/mL (≈ 0.118 µM)	0.05 µg/mL (≈ 0.118 µM)	0.05 µg/mL (≈ 0.118 µM)	0.05 µg/mL (≈ 0.118 µM)	0.2 µg/mL (≈ 0.471 µM)	0.1 µg/mL (≈ 0.236 µM)	0.05 µg/mL (≈ 0.118 µM)	0.2 µg/mL (≈ 0.471 µM)	MIC (S. aureus Smith): 0.0125 µg/mL (≈ 0.0295 µM); MIC (S. faecalis 214): 0.2 µg/mL (≈ 0.471 µM); MIC (S. faecalis 401): 0.2 µg/mL (≈ 0.471 µM); MIC (S. faecalis 402): 0.2 µg/mL (≈ 0.471 µM); ED50 (E. coli ML4707): 7.1 mg/kg
CCNCC1CCN(c2c(F)cc3c(=O)c(C(=O)O)cn(C4CC4)c3c2Br)C1 (stereo not drawn) [Example 17, 8-Bromo-l-cyclopropyl-7-(3-ethylaminomethyl-l-pyrrolidinyl)-6-fluoro-1,4-dihydro-4-oxo-3-quinolinecarboxylic acid]	0.05 µg/mL (≈ 0.111 µM)	0.0125 µg/mL (≈ 0.0276 µM)	0.2 µg/mL (≈ 0.442 µM)	0.1 µg/mL (≈ 0.221 µM)	0.05 µg/mL (≈ 0.111 µM)	0.1 µg/mL (≈ 0.221 µM)	0.1 µg/mL (≈ 0.221 µM)	0.1 µg/mL (≈ 0.221 µM)	0.05 µg/mL (≈ 0.111 µM)	0.1 µg/mL (≈ 0.221 µM)	≤ 0.05 µg/mL	0.05 µg/mL (≈ 0.111 µM)	0.05 µg/mL (≈ 0.111 µM)	0.05 µg/mL (≈ 0.111 µM)	0.05 µg/mL (≈ 0.111 µM)	0.05 µg/mL (≈ 0.111 µM)	0.1 µg/mL (≈ 0.221 µM)	0.05 µg/mL (≈ 0.111 µM)	0.05 µg/mL (≈ 0.111 µM)	0.1 µg/mL (≈ 0.221 µM)	MIC (S. aureus Smith; read-out: MIC): 0.0125 µg/mL (≈ 0.0276 µM); MIC (S. faecalis 214): 0.1 µg/mL (≈ 0.221 µM); MIC (S. faecalis 401): 0.1 µg/mL (≈ 0.221 µM); MIC (S. faecalis 402): 0.1 µg/mL (≈ 0.221 µM); ED50 (E. coli ML4707): 0.9 mg/kg; activity against gram-negative bacterial infections compared with the reference compounds (E. coli ML4707): greater activity against gram-negative bacterial infections than the reference compounds
CN(C)CC1CCN(c2c(F)cc3c(=O)c(C(=O)O)cn(C4CC4)c3c2F)C1 (stereo not drawn) [Example 21, 1-Cyclopropyl-6,8-difluoro-1,4-dihydro-7-(3-dimethylaminomethyl-1-pyrrolidinyl)-4-oxo-3-quinolinecarboxylic acid]	0.2 µg/mL (≈ 0.511 µM)	0.05 µg/mL (≈ 0.128 µM)	0.2 µg/mL (≈ 0.511 µM)	0.2 µg/mL (≈ 0.511 µM)	0.05 µg/mL (≈ 0.128 µM)	0.2 µg/mL (≈ 0.511 µM)	0.1 µg/mL (≈ 0.255 µM)	0.2 µg/mL (≈ 0.511 µM)	0.05 µg/mL (≈ 0.128 µM)	0.39 µg/mL (≈ 0.996 µM)	0.2 µg/mL (≈ 0.511 µM)	0.2 µg/mL (≈ 0.511 µM)	0.2 µg/mL (≈ 0.511 µM)	0.1 µg/mL (≈ 0.255 µM)	0.1 µg/mL (≈ 0.255 µM)	0.1 µg/mL (≈ 0.255 µM)	0.2 µg/mL (≈ 0.511 µM)	0.2 µg/mL (≈ 0.511 µM)	0.2 µg/mL (≈ 0.511 µM)	0.2 µg/mL (≈ 0.511 µM)	MIC (S. aureus Smith; read-out: MIC): 0.05 µg/mL (≈ 0.128 µM); MIC (S. faecalis 214): 0.2 µg/mL (≈ 0.511 µM); MIC (S. faecalis 401): 0.2 µg/mL (≈ 0.511 µM); MIC (S. faecalis 402): 0.2 µg/mL (≈ 0.511 µM); ED50 (E. coli ML4707): 1.2 mg/kg; activity against gram-negative bacterial infections compared with the reference compounds (E. coli ML4707): greater activity against gram-negative bacterial infections than the reference compounds
CN(C)CC1CCN(c2c(F)cc3c(=O)c(C(=O)O)cn(C4CC4)c3c2Cl)C1 (stereo not drawn) [Example 20, 8-Chloro-1-cyclopropyl-6-fluoro-1,4-dihydro-7-(3-dimethylaminomethyl-l-pyrrolidinyl)-4-oxo-3-quinolinecarboxylic acid]	0.1 µg/mL (≈ 0.245 µM)	0.025 µg/mL (≈ 0.0613 µM)	0.2 µg/mL (≈ 0.49 µM)	0.1 µg/mL (≈ 0.245 µM)	0.05 µg/mL (≈ 0.123 µM)	0.1 µg/mL (≈ 0.245 µM)	0.1 µg/mL (≈ 0.245 µM)	0.1 µg/mL (≈ 0.245 µM)	0.05 µg/mL (≈ 0.123 µM)	0.1 µg/mL (≈ 0.245 µM)	≤ 0.05 µg/mL	0.1 µg/mL (≈ 0.245 µM)	0.1 µg/mL (≈ 0.245 µM)	0.05 µg/mL (≈ 0.123 µM)	0.05 µg/mL (≈ 0.123 µM)	0.05 µg/mL (≈ 0.123 µM)	0.2 µg/mL (≈ 0.49 µM)	0.1 µg/mL (≈ 0.245 µM)	0.1 µg/mL (≈ 0.245 µM)	0.1 µg/mL (≈ 0.245 µM)	MIC (S. aureus Smith; read-out: MIC): 0.025 µg/mL (≈ 0.0613 µM); MIC (S. faecalis 214): 0.1 µg/mL (≈ 0.245 µM); MIC (S. faecalis 401): 0.1 µg/mL (≈ 0.245 µM); MIC (S. faecalis 402): 0.1 µg/mL (≈ 0.245 µM); ED50 (E. coli ML4707): 2.1 mg/kg
